# Results published in PMC12736008, “New Dimethylpyridine-3-Carboxamide Derivatives as MMP-13 Inhibitors with Anticancer Activity” (Molecules, 2025).
# Target: T1, MMP-13 (Homo sapiens, UniProt P45452)
# T1 construct: purchased Abcam ab139451
# Experiment: MMP-13 inhibitor screening assay kit (fluorometric)
# Format: biochemical
# Conditions: single-point screening; tested compounds 1.8 to 4.6 µM
# Method: The inhibitory activity of the designed compounds against MMP-13 was evaluated using a commercial fluorometric MMP-13 inhibitor assay kit (Abcam, Cambridge, UK), following the manufacturer’s protocol. Solutions of the tested compounds were prepared at concentrations ranging from 1.8 to 4.6 µM. N-isobutyl-N-(4-methoxyphenylsulfonyl)glycyl hydroxamic acid (NNGH), a broad-spectrum inhibitor of matrix metalloproteinases, was used as positive control. […] In parallel, MMP-8 inhibition assays were also conducted using the same concentrations of compounds 3b, 3c, 3d, and 3g.
# It should be emphasized that these assays were performed as single-point screening experiments, optimized for rapid qualitative assessment rather than full kinetic characterization. Consequently, the observed differences in activity between MMP-13 and MMP-8 are indicative trends supporting the selectivity predicted by computational studies, including docking, molecular dynamics simulations, and binding free energy calculations, rather than providing definitive quantitative evidence.
# The inhibitory activity of the tested compounds was evaluated using the MMP-13 inhibitor screening assay kit (fluorometric) (Abcam, ab139451). The assay performed according to the manufacturer’s instructions. The designed compounds were tested at concentrations ranging from 1.8 to 4.6 µM, to determine their inhibitory activity. […]
compound,measurement,value
"COc1ccc(S(=O)(=O)N(CC(=O)NO)CC(C)C)cc1 [NNGH, N-isobutyl-N-(4-methoxyphenylsulfonyl)glycyl hydroxamic acid, reference compound]",MMP-13 activity inhibition,~97%
